Data: patent US20260062422A1 (Halda Therapeutics OpCo, Inc., priority 2022, published 2026)

Columns and labels:
[1] = test system: VCaP cells; experiment: Cellular growth inhibition assay for VCaP cells, CellTiter-Glo; type: cell-based, human; conditions: 72 hours treatment, CellTiter-Glo 2.0
Method: VCaP cells were purchased from American Type Cell Culture (ATCC Cat #CRL2876) and then seeded on poly-D-lysine coated, black clear-bottom 384-well plates at 5000/well in 25 μL Dulbecco's Modified Eagle Medium (DMEM) supplemented with 10% w/w Fetal bovine serum (FBS) and 1% w/w Pen-Strep. Pen-Strep is a commercially available mixture of penicillin G and streptomycin, which is used in mammalian cell culture media to prevent bacterial contamination. Dulbecco's Modified Eagle Medium (DMEM) supplemented with 10% w/w fetal bovine serum (FBS) and 1% w/w Pen-Strep is herein referred to as Treatment Medium. Following seeding of cells in the plates, the plates were spun at 300×g for 30 seconds, then equilibrated to room temperature for 30 minutes, and then deposited in a humidified tissue culture incubator maintained at 37° C. with 5% CO2.
(§1) At 24 hours after seeding of the cells, dilutions of test compound were prepared in DMSO and dissolved in Treatment Medium, to achieve a final DMSO concentration of 0.5% w/w, thereby providing the Test Compound Solution. A 25 μL aliquot of the Test Compound Solution was added to cells in the well plates. An equal volume of a solution containing DMSO and Treatment Medium was used as a negative control. Following treatment of cells with Test Compound Solution or said equal volume of a solution containing DMSO and Treatment Medium, the plates were spun at 300×g for 30 seconds, and then left in an incubator for 72 hours.
(§2) At the end of the treatment duration, cell viability was quantified with CellTiter-Glo 2.0 reagent (Promega Cat #G9243). For this purpose, plates were equilibrated to room temperature for 30 minutes, and then 25 μL of CellTiter-Glo 2.0 reagent was added to cells in the plate wells. Plates were then agitated on a shaker for two minutes at 500 rpm and subsequently incubated at room temperature for 10 minutes. Following incubation, the plates were spun at 3000×g for 30 seconds, then sealed with an optical adhesive cover, and luminescence readings were measured with an EnVision Plate Reader.
(§3) Data was normalized using zero luminescence for baseline. A four-parameter non-linear regression curve fit was applied to dose-response data in GraphPad Prism data analysis software to determine the half-maximal growth inhibitory concentration (GI50) for each test compound.

[2] = test system: T47D cells; experiment: Cellular growth inhibition assay for T47D cells, CellTiter-Glo; type: cell-based, human; conditions: 72 hours treatment, CellTiter-Glo 2.0 cell viability
Method: T47D cells were purchased from American Type Cell Culture (ATCC Cat #HTB-133) and then seeded on poly-D-lysine coated, black clear-bottom 384-well plates at 3000/well in 25 μL Dulbecco's Modified Eagle Medium (DMEM) supplemented with 10% w/w Fetal bovine serum (FBS), 0.2 units/mL recombinant human insulin (Gibco Cat #12585014), and 1% w/w Pen-Strep. Pen-Strep is a commercially available mixture of penicillin G and streptomycin, which is used in mammalian cell culture media to prevent bacterial contamination. Dulbecco's Modified Eagle Medium (DMEM) supplemented with 10% w/w fetal bovine serum (FBS), 0.2 units/mL recombinant human insulin, and 1% w/w Pen-Strep is herein referred to as Treatment Medium. Following seeding of cells in the plates, the plates were spun at 300×g for 30 seconds, then equilibrated to room temperature for 30 minutes, and then deposited in a humidified tissue culture incubator maintained at 37° C. with 5% CO2.
as §1
as §2, with “Reader (Perkin Elmer).” for “Reader.”
as §3

SMILES | GI50 ([1]; Homo sapiens, VCaP, 72 h) [nM] | GI50 ([2]; Homo sapiens, T47D, 72 h) [nM] | GI50 [1] [nM] | GI50 [2] [nM]
Cc1sc2c(c1C)C(c1ccc(C[C@H]3CC[C@@H]4CN(c5ncc(C(=O)N[C@H]6C(C)(C)[C@H](Oc7ccc(C#N)c(Cl)c7)C6(C)C)cn5)CCN4C3)cc1)=N[C@@H](Cc1ncco1)c1nnc(C)n1-2 [Compound I-304] | < 500 | > 3000 | – | –
Cc1sc2c(c1C)C(c1ccc(C[C@@H]3CC[C@@H]4CN(c5ncc(C(=O)N[C@H]6C(C)(C)[C@H](Oc7ccc(C#N)c(Cl)c7)C6(C)C)cn5)CCN4C3)cc1)=C[C@@H](Cc1ncco1)c1nnc(C)n1-2 [Compound I-305] | > 3000 | 500 to 1500 | – | –
Cc1sc2c(c1C)C(c1ccc(C[C@@H]3CC[C@@]4(C3)CN(c3ncc(C(=O)N[C@H]5C(C)(C)[C@H](Oc6ccc(C#N)c(Cl)c6)C5(C)C)cn3)CCO4)cc1)=N[C@@H](Cc1ncco1)c1nnc(C)n1-2 [Compound I-309] | > 3000 | > 3000 | – | –
Cc1sc2c(c1C)C(c1ccc(C[C@H]3CC[C@]4(C3)CN(c3ncc(C(=O)N[C@H]5C(C)(C)[C@H](Oc6ccc(C#N)c(Cl)c6)C5(C)C)cn3)CCO4)cc1)=N[C@@H](Cc1ncco1)c1nnc(C)n1-2 [Compound I-310] | < 500 | < 500 | – | –
Cc1sc2c(c1C)C(c1ccc(OC3CCN(C4CCN(c5ncc(C(=O)N[C@H]6C(C)(C)[C@H](Oc7ccc(C#N)c(Cl)c7)C6(C)C)cn5)CC4)CC3)cc1)=N[C@@H](Cc1ncco1)c1nnc(C)n1-2 [Compound I-313] | < 500 | < 500 | – | –
Cc1sc2c(c1C)C(c1ccc(N3CCC[C@H](C(=O)N4CCCC4c4ncc(C(=O)N[C@H]5C(C)(C)[C@H](Oc6ccc(C#N)c(Cl)c6)C5(C)C)cn4)C3)cc1)=N[C@H](Cc1ncco1)c1nnc(C)n1-2 (stereo partly drawn) [Compound I-315] | > 3000 | > 3000 | – | –
Cc1sc2c(c1C)C(c1ccc(CNC(=O)Cc3ncc(C(=O)N[C@H]4C(C)(C)[C@H](Oc5ccc(C#N)c(Cl)c5)C4(C)C)cn3)cc1)=N[C@@H](Cc1ncco1)c1nnc(C)n1-2 [Compound I-316] | < 500 | 500 to 1500 | – | –
Cc1sc2c(c1C)C(c1ccc(C(=O)N3CCC[C@@H](Cc4ncc(C(=O)N[C@H]5C(C)(C)[C@H](Oc6ccc(C#N)c(Cl)c6)C5(C)C)cn4)C3)cc1)=N[C@@H](Cc1ncco1)c1nnc(C)n1-2 [Compound I-318] | > 3000 | > 3000 | – | –
Cc1sc2c(c1C)C(c1ccc(C(=O)N3CCC[C@@H](Cc4ncc(C(=O)N[C@H]5C(C)(C)[C@H](Oc6ccc(C#N)c(Cl)c6)C5(C)C)cn4)C3)cc1)=N[C@@H](Cc1ncco1)c1nnc(C)n1-2 [Compound I-319] | – | – | 1500 to 3000 | > 3000
Cc1sc2c(c1C)C(c1ccc(CCC[C@@H]3CCCN(c4ncc(C(=O)N[C@H]5C(C)(C)[C@H](Oc6ccc(C#N)c(Cl)c6)C5(C)C)cn4)C3)cc1)=N[C@@H](Cc1ncco1)c1nnc(C)n1-2 [Compound I-320] | < 500 | < 500 | – | –
Cc1sc2c(c1C)C(c1ccc(CCO[C@@H]3CCCN(c4ncc(C(=O)N[C@H]5C(C)(C)[C@H](Oc6ccc(C#N)c(Cl)c6)C5(C)C)cn4)C3)cc1)=N[C@@H](Cc1ncco1)c1nnc(C)n1-2 [Compound I-322] | < 500 | < 500 | – | –
Cc1sc2c(c1C)C(c1ccc(CCO[C@H]3CCCN(c4ncc(C(=O)N[C@H]5C(C)(C)[C@H](Oc6ccc(C#N)c(Cl)c6)C5(C)C)cn4)C3)cc1)=N[C@@H](Cc1ncco1)c1nnc(C)n1-2 [Compound I-323] | < 500 | < 500 | – | –
Cc1sc2c(c1C)C(c1ccc(C#CC3CC(Cc4ncc(C(=O)N[C@H]5C(C)(C)[C@H](Oc6ccc(C#N)c(Cl)c6)C5(C)C)cn4)C3)cc1)=NC(Cc1ncco1)c1nnc(C)n1-2 (stereo partly drawn) [Compound I-561] | – | – | – | < 500
Cc1sc2c(c1C)C(c1ccc(N3CC(CC4CN(c5cnc(C(=O)N[C@H]6C(C)(C)[C@H](Oc7ccc(C#N)c(Cl)c7)C6(C)C)cn5)C4)C3)cc1)=N[C@@H](Cc1ncco1)c1nnc(C)n1-2 [Compound I-563] | – | < 500 | – | –
Cc1sc2c(c1C)C(c1ccc(N3CC(C4CCN(c5ccc(C(=O)N[C@H]6C(C)(C)[C@H](Oc7ccc(C#N)c(Cl)c7)C6(C)C)nc5)CC4)C3)cc1)=N[C@@H](Cc1ncco1)c1nnc(C)n1-2 [Compound I-564] | – | < 500 | – | –
Cc1sc2c(c1C)C(c1ccc(N3CC(CC4CCN(c5cnc(C(=O)N[C@H]6C(C)(C)[C@H](Oc7ccc(C#N)c(Cl)c7)C6(C)C)cn5)CC4)C3)cc1)=N[C@@H](Cc1ncco1)c1nnc(C)n1-2 [Compound I-575] | – | < 500 | – | –
Cc1sc2c(c1C)C(c1ccc(N3CC(C4CCCC(Cc5ncc(C(=O)N[C@H]6C(C)(C)[C@H](Oc7ccc(C#N)c(Cl)c7)C6(C)C)cn5)C4)C3)cc1)=N[C@@H](Cc1ncco1)c1nnc(C)n1-2 (stereo partly drawn) [Compound I-579] | – | < 500 | – | –
Cc1sc2c(c1C)C(c1ccc(N3CC(C4CCCC(Cc5ncc(C(=O)N[C@H]6C(C)(C)[C@H](Oc7ccc(C#N)c(Cl)c7)C6(C)C)cn5)C4)C3)cc1)=N[C@@H](Cc1ncco1)c1nnc(C)n1-2 (stereo partly drawn) [Compound I-581] | – | – | – | < 500
Cc1sc2c(c1C)C(c1ccc(OC3CC4(C3)CC3(CCN(c5ncc(C(=O)N(C)[C@H]6C(C)(C)[C@H](Oc7ccc(C#N)c(Cl)c7)C6(C)C)cn5)CC3)C4)cc1)=N[C@@H](Cc1ncco1)c1nnc(C)n1-2 [Compound I-592] | – | < 500 | – | –

Second part, the compound after the results:

GI50 ([1]; Homo sapiens, VCaP, 72 h) [nM] | GI50 ([2]; Homo sapiens, T47D, 72 h) [nM] | GI50 [1] [nM] | GI50 [2] [nM] | SMILES
< 500 | < 500 | – | – | Cc1sc2c(c1C)C(c1ccc(C[C@@H]3CC[C@@H]4CN(c5ncc(C(=O)N[C@H]6C(C)(C)[C@H](Oc7ccc(C#N)c(Cl)c7)C6(C)C)cn5)CCN4C3)cc1)=N[C@H](Cc1ncco1)c1nnc(C)n1-2 [Compound I-307]
> 3000 | > 3000 | – | – | Cc1sc2c(c1C)C(c1ccc(C[C@@H]3CC[C@]4(C3)CN(c3ncc(C(=O)N[C@H]5C(C)(C)[C@H](Oc6ccc(C#N)c(Cl)c6)C5(C)C)cn3)CCO4)cc1)=N[C@@H](Cc1ncco1)c1nnc(C)n1-2 [Compound I-308]
< 500 | < 500 | – | – | Cc1sc2c(c1C)C(c1ccc(CCC[C@H]3CCCN(c4ncc(C(=O)N[C@H]5C(C)(C)[C@H](Oc6ccc(C#N)c(Cl)c6)C5(C)C)cn4)C3)cc1)=N[C@@H](Cc1ncco1)c1nnc(C)n1-2 [Compound I-321]
– | < 500 | – | – | Cc1sc2c(c1C)C(c1ccc(N3CC(CC4CN(c5ncc(C(=O)N[C@H]6C(C)(C)[C@H](Oc7ccc(C#N)c(Cl)c7)C6(C)C)cn5)C4)C3)cc1)=N[C@@H](Cc1ncco1)c1nnc(C)n1-2 [Compound I-562]
– | < 500 | – | – | Cc1sc2c(c1C)C(c1ccc(N3CC(CC4CCN(c5ncc(C(=O)N[C@H]6C(C)(C)[C@H](Oc7ccc(C#N)c(Cl)c7)C6(C)C)cn5)CC4)C3)cc1)=N[C@@H](Cc1ncco1)c1nnc(C)n1-2 [Compound I-574]
– | – | – | < 500 | Cc1sc2c(c1C)C(c1ccc(N3CC(C4CCCC(Cc5ncc(C(=O)N[C@H]6C(C)(C)[C@H](Oc7ccc(C#N)c(Cl)c7)C6(C)C)cn5)C4)C3)cc1)=N[C@@H](Cc1ncco1)c1nnc(C)n1-2 (stereo partly drawn) [Compound I-580]
– | – | – | < 500 | Cc1sc2c(c1C)C(c1ccc(N3CC(C4CCCC(Cc5ncc(C(=O)N[C@H]6C(C)(C)[C@H](Oc7ccc(C#N)c(Cl)c7)C6(C)C)cn5)C4)C3)cc1)=N[C@@H](Cc1ncco1)c1nnc(C)n1-2 (stereo partly drawn) [Compound I-582]
– | < 500 | – | – | Cc1sc2c(c1C)C(c1ccc(OC[C@@H]3CCCN(c4cnc(C(=O)N[C@H]5C(C)(C)[C@H](Oc6ccc(C#N)c(Cl)c6)C5(C)C)cn4)C3)cc1)=N[C@@H](Cc1ncco1)c1nnc(C)n1-2 [Compound I-591]
